Data taken from patent US5939448A, “Triazole derivative or salt thereof” (SS Pharmaceutical Co., Ltd., priority 1996, dated 1999).
Converted amounts (≈) assume the structure as drawn.

Tests used:
C. albicans ATCC 44859 = assay: Test 1: In vitro antifungal activity against Candida albicans (suppression of mycelial type growth); type: cell-based; settings: ATCC44859, minimum concentration permitting apparent suppression of mycerial type growth, 10% fetal bovine serum added MEM, 37° C., 20 hours, read-out: Terminal Point C. albicans
Procedure: Test 1: In vitro antifungal activity against Candida albicans
They were incubated at 37° C. for 20 hours in a CO2 gas incubator. After incubation, morphological change of C. albicans was observed under an inverted microscope.

A. fumigatus IFM 40808 = assay: Test 2: In vitro antifungal activity against Aspergillus fumigatus (MIC); type: cell-based; settings: IFM40808, RPMI 1640 with 0.165M MOPS, pH 7, 35° C., 24 hours
Procedure: Test 2: In vitro antifungal activity against Aspergillus fumigatus
(§1) They were incubated at 35° C. for 24 hours.

A. flavus IFM 41935 = assay: Test 3: In vitro antifungal activity against Aspergillus flavus (MIC); type: cell-based; settings: IFM41935, RPMI 1640 with 0.165M MOPS, pH 7, 35° C., 24 hours
Procedure: Test 3: In vitro antifungal activity against Aspergillus flavus
as §1

C. albicans IFM 40009 = assay: Test 4: In vivo antifungal activity against Candida albicans (survival of infected mice); design: species or system Candida albicans; male ICR (CRJ: CD-1) mouse; settings: oral 1.25 mg/kg each, four times in total; for Mean survival days: 14 days after infection, vs. control ***: p < 0.001, **: p < 0.01; for Survival mice on 14-th day: survivors/mice of group
Procedure: Test 4: In vivo antifungal activity against Candida albicans
After 4-week-old, male, ICR (CRJ: CD-1) mouse was fasted for 6 hours, C. albicans IFM 40009 was inoculated to a tail vein of the mouse to give an amount of 3.0×10^6 cells/mouse, whereby infection was caused. A control group consisted of 8 mice, while a chemical-administered group consisted of 5 mice. The chemical was orally administered once an hour after the inoculation of the fungus and 24 hours after the inoculation, and once a day consecutively, four times in total, at 1.25 mg/kg each. The survival during 14 days after the infection was counted. In addition, the mean survival days of the control group and the mean survival days of the chemical-administered group were compared and statistically analyzed by the Kaplan-Meire method (Cox mantel test).

MIC (C. albicans ATCC 44859) | MIC (A. fumigatus IFM 40808) | MIC (A. flavus IFM 41935) | Structure (SMILES) | Mean survival days (C. albicans IFM 40009) | Survival mice on 14-th day (C. albicans IFM 40009)
– | – | – | O=S(=O)(CCO)C(F)(F)C(O)(Cn1cncn1)c1ccc(F)cc1F (stereo not drawn) [Example 20, 2-(2,4-difluorophenyl)-1,1-difluoro-1-(2-hydroxyethyl)sulfonyl-3-(1H-1,2,4-triazol-1-yl)propan-2-ol] | 14.0 days | 5/5
0.25 µg/mL (≈ 0.712 µM) | 64 µg/mL (≈ 182 µM) | 64 µg/mL (≈ 182 µM) | OCCSC(F)(F)C(O)(Cn1cncn1)c1ccc(F)cc1F (stereo not drawn) [Example 18, 2-(2,4-difluorophenyl)-1,1-difluoro-1-(2-hydroxyethyl)thio-3-(1H-1,2,4-triazol-1-yl)propan-2-ol] | – | –
0.0625 µg/mL (≈ 0.157 µM) | 16 µg/mL (≈ 40.3 µM) | 32 µg/mL (≈ 80.5 µM) | COCCS(=O)(=O)C(F)(F)C(O)(Cn1cncn1)c1ccc(F)cc1F (stereo not drawn) [Example 21, 2-(2,4-difluorophenyl)-1,1-difluoro-1-(2-methoxyethyl)sulfonyl-3-(1H-1,2,4-triazol-1-yl)propan-2-ol] | 14.0 days | 4/5
0.0156 µg/mL (≈ 0.0427 µM) | 4 µg/mL (≈ 10.9 µM) | 8 µg/mL (≈ 21.9 µM) | COCCSC(F)(F)C(O)(Cn1cncn1)c1ccc(F)cc1F (stereo not drawn) [Example 15, 2-(2,4-difluorophenyl)-1,1-difluoro-1-(2-methoxyethyl)thio-3-(1H-1,2,4-triazol-1-yl)propan-2-ol] | – | –

Structure (SMILES) | MIC (C. albicans ATCC 44859) | MIC (A. fumigatus IFM 40808) | MIC (A. flavus IFM 41935) | Mean survival days (C. albicans IFM 40009) | Survival mice on 14-th day (C. albicans IFM 40009)
OC(Cn1cncn1)(Cn1cncn1)c1ccc(F)cc1F [Fluconazole, reference compound] | 0.25 µg/mL (≈ 0.816 µM) | > 128 µg/mL | > 128 µg/mL | 9.6 days | 0/5
CC(=O)OCCSC(F)(F)C(O)(Cn1cncn1)c1ccc(F)cc1F (stereo not drawn) [Example 14, 1-(2-acetoxyethyl)thio-2-(2,4-difluorophenyl)-1,1-difluoro-3-(1H-1,2,4-triazol-1-yl)propan-2-ol] | 0.0313 µg/mL (≈ 0.0796 µM) | 8 µg/mL (≈ 20.3 µM) | 4 µg/mL (≈ 10.2 µM) | – | –
